In US20230150970A1, “AMINOPYRIMIDINE DERIVATIVES AND THEIR USE AS ARYL HYDROCARBON RECEPTOR MODULATORS” (DONG-A ST CO., LTD., priority 2020, published 2023):
Like-named read-outs stand apart in the source and are kept apart here.

Key:
AhR [1] = biological target: T1, AhR (Homo sapiens, UniProt P35869); test: In Vitro Assay 1: XRE-luciferase reporter assay, antagonism in human cell line (HepG2)
T1 sequence (P35869 11-848): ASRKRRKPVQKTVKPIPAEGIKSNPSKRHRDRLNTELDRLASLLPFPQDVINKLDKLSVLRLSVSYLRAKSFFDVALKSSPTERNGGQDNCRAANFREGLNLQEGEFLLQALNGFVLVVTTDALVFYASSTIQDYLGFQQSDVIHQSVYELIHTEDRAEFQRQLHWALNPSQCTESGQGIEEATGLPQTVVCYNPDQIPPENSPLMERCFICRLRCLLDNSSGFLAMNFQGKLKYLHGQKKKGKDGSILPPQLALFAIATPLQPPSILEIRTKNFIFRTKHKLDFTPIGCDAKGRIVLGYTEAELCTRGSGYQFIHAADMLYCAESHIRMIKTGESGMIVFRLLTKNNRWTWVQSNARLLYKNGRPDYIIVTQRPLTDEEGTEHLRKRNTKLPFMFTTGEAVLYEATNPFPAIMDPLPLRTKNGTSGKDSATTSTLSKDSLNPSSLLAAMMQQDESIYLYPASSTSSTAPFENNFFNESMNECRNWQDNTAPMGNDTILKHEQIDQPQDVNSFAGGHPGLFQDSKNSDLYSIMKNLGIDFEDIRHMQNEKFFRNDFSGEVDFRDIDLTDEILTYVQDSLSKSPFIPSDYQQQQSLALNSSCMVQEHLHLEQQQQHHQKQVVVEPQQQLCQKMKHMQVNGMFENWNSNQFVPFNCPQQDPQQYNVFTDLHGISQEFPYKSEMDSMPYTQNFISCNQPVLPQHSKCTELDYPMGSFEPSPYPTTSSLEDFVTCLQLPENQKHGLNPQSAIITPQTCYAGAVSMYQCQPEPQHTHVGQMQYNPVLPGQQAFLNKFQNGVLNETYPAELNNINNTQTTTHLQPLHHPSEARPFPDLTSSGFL

AhR [2] = biological target: T1, AhR; test: In Vitro Assay 4: endogenous AhR activity assay (CYP1A1 and CYP1B1 mRNA, qRT-PCR, HepG2 cells)
AhR [3] = biological target: T1, AhR; test: In Vitro Assay 3: XRE-luciferase reporter assay, agonism in human cell line (HepG2); assay type: cell-based; design: endogenous in cells; host or cells: HepG2; conditions: HepG2, tryptophan free medium, 6 hours, no agonist, read-out: Assay 3: AhR-Luc Human Agonism (EC50)
Experimental: In Vitro Assay 3: Agonism in Human Cell Line
HepG2 (human hepatoma cell line) cells co-transfected with XRE-Luc and Nano-Luc plasmids were plated in tryptophan free medium containing 1% of dialyzed fetal bovine serum and incubated overnight at 37° C. in a CO2 incubator. After 24 hours, cells were treated for 6 hours with test compounds or not. […] As a positive control, cells were incubated with TCDD.

[4] = Assay 1: AhR-Luc Human Antagonism (IC50, nM), values marked *: kynurenine 50 μM, 6 hours
[5] = HepG2, read-out: CYP1A1 (% Inhibition)
[6] = HepG2, read-out: CYP1B1 (% Inhibition)
[7] = Assay 1: AhR-Luc Human Antagonism (IC50, nM), unmarked values: kynurenine 200 μM, 6 hours
[8] = read-out: Assay 1: AhR-Luc Human Antagonism (IC50), values marked *: kynurenine 50 μM, 6 hours

| Compound | IC50 (AhR [1]; [4]) | EC50 (AhR [3]; number of the cell) | EC50 (AhR [3]; class in brackets of the cell) | IC50 (AhR [1]; [7]) | other results |
| --- | --- | --- | --- | --- | --- |
| CC1CCN(c2cc(-c3ccc(Cl)cc3)nc(-c3cccnc3)n2)CC1 [Example 27, 4-(4-chlorophenyl)-6-(4-methylpiperidin-1-yl)-2-(pyridin-3-yl)pyrimidine] | < 10 nM |  |  |  | inhibition at 0.123 µM (AhR [2]; [5]): 68.4%; inhibition at 0.123 µM (AhR [2]; [6]): 90.3% |
| OCC1CCN(c2cc(-c3ccc(Cl)cc3)nc(-c3cccnc3)n2)CC1 [Example 42, (1-(6-(4-chlorophenyl)-2-(pyridin-3-yl)pyrimidin-4-yl)piperidin-4-yl)methanol] | < 10 nM |  |  |  | inhibition at 0.123 µM (AhR [2]; [5]): 98.8%; inhibition at 0.123 µM (AhR [2]; [6]): 99.3% |
| OCCC1CCN(c2cc(-c3ccc(Cl)cc3)nc(-c3cccnc3)n2)CC1 [Example 43, 2-(1-(6-(4-chlorophenyl)-2-(pyridin-3-yl)pyrimidin-4-yl)piperidin-4-yl)ethan-1-ol] | < 10 nM |  |  |  | inhibition at 0.123 µM (AhR [2]; [5]): 97.1%; inhibition at 0.123 µM (AhR [2]; [6]): 100% |
| C[C@@H]1CN(c2cc(-c3ccc(Cl)cc3)nc(-c3cccnc3)n2)C[C@H](C)O1 [Example 70, cis-4-(6-(4-chlorophenyl)-2-(pyridin-3-yl)pyrimidin-4-yl)-2,6-dimethylmorpholine] | > 1000 nM | 758 nM |  |  |  |
| Cc1cccc(N2CCN(c3cc(-c4ccc(Cl)cc4)nc(-c4cccnc4)n3)CC2)c1C [Example 118, 4-(4-chlorophenyl)-6-(4-(2,3-dimethylphenyl)piperazin-1-yl)-2-(pyridin-3-yl)pyrimidine] | 10 to 100 nM | 1580 nM |  |  |  |
| C[C@@H](O)[C@@H](C)Nc1cc(-c2ccc(Cl)cc2)nc(-c2cccnc2)n1 [Example 144, (2R,3R)-3-((6-(4-chlorophenyl)-2-(pyridin-3-yl)pyrimidin-4-yl)amino)butan-2-ol] | 10 to 100 nM | 55.9 nM |  |  |  |
| CC(=O)N1CCC(Nc2cc(-c3ccc(Cl)cc3)nc(-c3cccnc3)n2)CC1 [Example 146, 1-(4-((6-(4-chlorophenyl)-2-(pyridin-3-yl)pyrimidin-4-yl)amino)piperidin-1-yl)ethan-1-one] | 10 to 100 nM |  |  |  | inhibition at 0.123 µM (AhR [2]; [5]): 41.8%; inhibition at 0.123 µM (AhR [2]; [6]): 77.2% |
| COCCN1CCC(CNc2cc(-c3ccc(Cl)cc3)nc(-c3cccnc3)n2)CC1 [Example 170, 6-(4-chlorophenyl)-N-((1-(2-methoxyethyl)piperidin-4-yl)methyl)-2-(pyridin-3-yl)pyrimidin-4-amine] | 10 to 100 nM | > 30000 nM | > 10000 nM |  |  |
| (R)-(4-(6-(4-chlorophenyl)-2-(pyridin-3-yl)pyrimidin-4-yl)piperazin-2-yl)methanol [Example 79] |  |  |  |  | IC50 (AhR [1]; [8]): > 1000 nM |
| Cis-4-((6-(4-chlorophenyl)-2-(pyridin-3-yl)pyrimidin-4-yl)amino)cyclohexan-1-ol [Example 216] |  |  |  |  | IC50 (AhR [1]; [8]): 10 to 100 nM |
| Cis-(4-((6-(4-chlorophenyl)-2-(pyridin-3-yl)pyrimidin-4-yl)amino)cyclohexyl)methanol [Example 215] |  |  |  |  | IC50 (AhR [1]; [8]): 10 to 100 nM |
| Trans-4-((6-(4-chlorophenyl)-2-(pyridin-3-yl)pyrimidin-4-yl)amino)cyclohexan-1-ol [Example 217] |  |  |  |  | IC50 (AhR [1]; [8]): 10 to 100 nM |

Now from value to compound, other results behind:

| IC50 (AhR [1]; [4]) | EC50 (AhR [3]; number of the cell) | EC50 (AhR [3]; class in brackets of the cell) | IC50 (AhR [1]; [7]) | Compound | other results |
| --- | --- | --- | --- | --- | --- |
| < 10 nM | > 30000 nM | > 10000 nM |  | CC(CO)N1CCN(c2cc(-c3ccc(Cl)cc3)nc(-c3cccnc3)n2)CC1 (stereo not shown) [Example 224, 2-(4-(6-(4-chlorophenyl)-2-(pyridin-3-yl)pyrimidin-4-yl)piperazin-1-yl)propan-1-ol] |  |
| < 10 nM | > 30000 nM | > 10000 nM |  | COCC(=O)NC1CCN(c2cc(-c3ccc(Cl)cc3)nc(-c3cccnc3)n2)CC1 [Example 225, N-(1-(6-(4-chlorophenyl)-2-(pyridin-3-yl)pyrimidin-4-yl)piperidin-4-yl)-2-methoxyacetamide] |  |
|  | > 30000 nM | > 10000 nM | < 10 nM | OCC1CCN(c2cc(-c3ccc(Cl)c(F)c3)nc(-c3cccnc3)n2)CC1 [Example 246, (1-(6-(4-chloro-3-fluorophenyl)-2-(pyridin-3-yl)pyrimidin-4-yl)piperidin-4-yl)methanol] |  |
|  | > 30000 nM | > 10000 nM | < 10 nM | OC[C@H]1CCN(c2cc(-c3ccc(C(F)(F)F)cc3)nc(-c3cccnc3)n2)C[C@@H]1O [Example 260, (3R,4R)-4-(hydroxymethyl)-1-(2-(pyridin-3-yl)-6-(4-(trifluoromethyl)phenyl)pyrimidin-4-yl)piperidin-3-ol] |  |
|  | > 30000 nM | > 10000 nM | < 10 nM | OC[C@@H]1CCN(c2cc(-c3ccc(C(F)(F)F)cc3)nc(-c3cccnc3)n2)C[C@H]1O [Example 262, (3S,4S)-4-(hydroxymethyl)-1-(2-(pyridin-3-yl)-6-(4-(trifluoromethyl)phenyl)pyrimidin-4-yl)piperidin-3-ol] |  |
|  | > 30000 nM | > 10000 nM | 10 to 100 nM | OCC1CCN(c2cc(-c3ccc(Cl)c(O)c3)nc(-c3cccnc3)n2)CC1 [Example 273, 2-chloro-5-(6-(4-(hydroxymethyl)piperidin-1-yl)-2-(pyridin-3-yl)pyrimidin-4-yl)phenol] |  |
|  | > 30000 nM | > 10000 nM | < 10 nM | OCC1CCN(c2cc(-c3ccc(N4CCOCC4)c(F)c3)nc(-c3cccnc3)n2)CC1 [Example 276, (1-(6-(3-fluoro-4-morpholinophenyl)-2-(pyridin-3-yl)pyrimidin-4-yl)piperidin-4-yl)methanol] |  |
|  | > 30000 nM | > 10000 nM | 10 to 100 nM | OCC1CCN(c2cc(-c3ccc(OC4CCCCO4)cc3)nc(-c3cccnc3)n2)CC1 (stereo not shown) [Example 278, (1-(2-(pyridin-3-yl)-6-(4-((tetrahydro-2H-pyran-2-yl)oxy)phenyl)pyrimidin-4-yl)piperidin-4-yl)methanol] |  |
|  | > 30000 nM | > 10000 nM | < 10 nM | OCC1CCN(c2cc(-c3ccc(N4CCOCC4)nc3)nc(-c3cccnc3)n2)CC1 [Example 289, (1-(6-(6-morpholinopyridin-3-yl)-2-(pyridin-3-yl)pyrimidin-4-yl)piperidin-4-yl)methanol] |  |
|  | > 30000 nM | > 10000 nM | < 10 nM | O[C@H]1CON(c2cc(-c3ccc(C(F)(F)F)cc3)nc(-c3cccnc3)n2)C1 [Example 314, (R)-2-(2-(pyridin-3-yl)-6-(4-(trifluoromethyl)phenyl)pyrimidin-4-yl)isoxazolidin-4-ol] |  |
|  | > 30000 nM | > 10000 nM | < 10 nM | O=C(CCCO)N1CCN(c2cc(-c3ccc(Cl)cc3)nc(-c3cccnc3)n2)CC1 [Example 361, 1-(4-(6-(4-chlorophenyl)-2-(pyridin-3-yl)pyrimidin-4-yl)piperazin-1-yl)-4-hydroxybutan-1-one] |  |
|  |  |  | > 1000 nM | CN(C)CCNc1ccc(-c2cc(N3CC[C@H](O)C3)nc(-c3cccnc3)n2)cc1 [Example 374, (S)-1-(6-(4-((2-(dimethylamino)ethyl)amino)phenyl)-2-(pyridin-3-yl)pyrimidin-4-yl)pyrrolidin-3-ol] |  |
|  |  |  | > 1000 nM | CN(C)CCOc1ccc(-c2cc(N3CC[C@H](O)C3)nc(-c3cccnc3)n2)cc1 [Example 375, (S)-1-(6-(4-(2-(dimethylamino)ethoxy)phenyl)-2-(pyridin-3-yl)pyrimidin-4-yl)pyrrolidin-3-ol] |  |
|  |  |  | 100 to 1000 nM | OCCNc1ccc(-c2cc(N3CC[C@H](O)C3)nc(-c3cccnc3)n2)cc1 [Example 376, (S)-1-(6-(4-((2-hydroxyethyl)amino)phenyl)-2-(pyridin-3-yl)pyrimidin-4-yl)pyrrolidin-3-ol] |  |
